Legend:
Assay in all cases: Agar dilution in vitro activity
Type in all cases: cell-based
[1] = test system: Candida albicans GC3066 ATCC Control; settings: C. albicans GC3066 ATCC Control
Protocol: (§1) The in vitro activities of tigecycline and control antibiotics were determined by the broth microdilution method as recommended by the NCCLS. (National Committee for Clinical Laboratory Standards, 2003. Methods for Dilution Antimicrobial Susceptibility Tests for Bacteria That Grow Aerobically; Approved Standards: M7-A6, Sixth ed, vol. 23., National Committee for Clinical Laboratory Standards Wayne, Pa.) was used for the standard procedures. MBH with 5% lysed horse blood was used for testing S. pneumoniae and Haemophilus Test Medium was used for testing H. influenzae. […] Media age studies were performed by preparing MHB in multiple flasks, then storing the media under various conditions. MICs were usually performed in duplicate on each day of testing. Storage under anaerobic conditions was conducted in an anaerobic chamber (MACS MG 1000, Don Whitley Scientific LTD). The pH of the media was determined by pH meter (Corning 430). A comparison of the in vitro activity of tigecycline by agar and broth dilution methodolgies with and without Oxyrase® against clinical isolates is shown in Table 1.

[2] = test system: Enterococcus faecalis GC2242 Vancomycin-Resistant; settings: E. faecalis GC2242 Vancomycin-Resistant
Protocol: as §1

[3] = test system: Enterococcus faecalis GC4555 ATCC Control; settings: E. faecalis GC4555 ATCC Control
Protocol: as §1

[4] = test system: Escherichia coli GC1073 tet(B) wt; settings: E. coli GC1073 tet(B) wt
Protocol: as §1

[5] = test system: Escherichia coli GC2203 ATCC Control; settings: E. coli GC2203 ATCC Control
Protocol: as §1

[6] = test system: Escherichia coli GC2270 tet(M); settings: E. coli GC2270 tet(M)
Protocol: as §1

[7] = test system: Escherichia coli GC4559 parent GC4560; settings: E. coli GC4559
Protocol: as §1

[8] = test system: Escherichia coli GC4560 IMP mutant; settings: E. coli GC4560 IMP mutant
Protocol: as §1

[9] = test system: Staphylococcus aureus GC1131 Clinical isolate; settings: S. aureus GC1131
Protocol: as §1

[10] = test system: Staphylococcus aureus GC2216 ATCC Control; settings: S. aureus GC2216 ATCC Control
Protocol: as §1

[11] = test system: Staphylococcus aureus GC4536 Smith MP -In Vivo; settings: S. aureus GC4536 Smith
Protocol: as §1

[12] = test system: Staphylococcus aureus GC6466 Clinical - tet(M); settings: S. aureus GC6466 tet(M)
Protocol: as §1

[13] = test system: Staphylococcus aureus GC6467 Clinical - tet(M) + (K); settings: S. aureus GC6467 tet(M) + (K)
Protocol: as §1

SMILES: CN(C)c1cc(NC(=O)CNC(C)(C)C)c(O)c2c1C[C@H]1C[C@H]3[C@H](N(C)C)C(O)=C(C(N)=O)C(=O)[C@@]3(O)C(O)=C1C2=O [Tigecycline, tigecycline]
- In Vitro Activity of Tigecycline ([1]; Oxyrase (10%)): >16
- In Vitro Activity of Tigecycline ([1]; no Oxyrase): >16
- In Vitro Activity of Tigecycline ([2]; Oxyrase (10%)): 0.12
- In Vitro Activity of Tigecycline ([2]; no Oxyrase): 0.12
- In Vitro Activity of Tigecycline ([3]; Oxyrase (10%)): 0.12
- In Vitro Activity of Tigecycline ([3]; no Oxyrase): 0.12
- In Vitro Activity of Tigecycline ([4]; Oxyrase (10%)): 0.25
- In Vitro Activity of Tigecycline ([4]; no Oxyrase): 0.25
- In Vitro Activity of Tigecycline ([5]; Oxyrase (10%)): 0.12
- In Vitro Activity of Tigecycline ([5]; no Oxyrase): 0.25
- In Vitro Activity of Tigecycline ([6]; Oxyrase (10%)): 0.12
- In Vitro Activity of Tigecycline ([6]; no Oxyrase): 0.25
- In Vitro Activity of Tigecycline ([7]; Oxyrase (10%)): 0.12
- In Vitro Activity of Tigecycline ([7]; no Oxyrase): 0.25
- In Vitro Activity of Tigecycline ([8]; Oxyrase (10%)): 0.03
- In Vitro Activity of Tigecycline ([8]; no Oxyrase): 0.03
- In Vitro Activity of Tigecycline ([9]; Oxyrase (10%)): 0.25
- In Vitro Activity of Tigecycline ([9]; no Oxyrase): 0.25
- In Vitro Activity of Tigecycline ([10]; Oxyrase (10%)): 0.25
- In Vitro Activity of Tigecycline ([10]; no Oxyrase): 0.5
- In Vitro Activity of Tigecycline ([11]; Oxyrase (10%)): 0.12
- In Vitro Activity of Tigecycline ([11]; no Oxyrase): 0.25
- In Vitro Activity of Tigecycline ([12]; Oxyrase (10%)): 0.12
- In Vitro Activity of Tigecycline ([12]; no Oxyrase): 0.25
- In Vitro Activity of Tigecycline ([13]; Oxyrase (10%)): 0.5
- In Vitro Activity of Tigecycline ([13]; no Oxyrase): 1

From patent US20050130252A1, “Stabilized susceptibility tests of aerobic pathogens” (Wyeth Holdings Corporation, priority 2003, published 2005)
